Test [1] deals with Benzodiazepine Receptor. Briefly: Test on Binding to Benzodiazepine Receptor (inhibition of specific binding of tritium-labeled diazepam). Also noted: species or system male Wistar rats. Particulars: rat cerebral cortex; 2 nM tritium-labeled diazepam; 0° C., 60 minutes; Ki=IC50÷(1+L/Kd). Here is the method: This test was carried out modifying partially a method of Moehler & Okada, Science, 198, 849-851 (1977). Receptor preparation was provided from the cerebral cortex of male Wistar rats (11-13 weeks age). Inhibitory action of the test compound on the specific binding of tritium-labeled diazepam to the receptor was evaluated as follows: 2 nM tritium-labeled diazepam and an aqueous solution of the test compound in 5 or 6 different concentrations were incubated with the receptor preparation at 0° C. for 60 minutes. The 50% inhibitory concentration (IC50) was measured by the concentration-response curve. In addition, the inhibitory constant (Ki) of the test compound was calculated by dissociation constant (Kd) and concentration (L) of tritium-labelled diazepam.

Test [2] concerns Pentylenetetrazole-Induced Convulsion. Briefly: Antagonism of Pentylenetetrazole-Induced Convulsion (agonistic activity). It counts as in vivo. Particulars: Mus musculus, iv; male mice; test compound i.v.; pentylenetetrazole 125 mg/kg s.c.; 2-hour observation; probit method; read-out: ED50 (dose required to prevent tonic convulsion and death in 50% of the animals). Here is the method: Agonistic activity was evaluated in this Experiment. Pentylenetetrazole was subcutaneously administered male mice (a group of 8-16 male mice was employed in each test) at a dose of 125 mg/kg immediately after intravenous injection of the test compound. The dose (ED50) required to prevent tonic convulsion and death in 50% of the animals during subsequent 2-hour observation period was calculated by the probit method.

Test [3] has the same test system. Nature of the test: Potentiation of Pentylenetetrazole-Induced Convulsion (inverse agonist activity). Particulars: Mus musculus, iv; male mice; test compound i.v.; pentylenetetrazole 90 mg/kg s.c.; 2-hour observation; probit method; read-out: ED50 (dose required to produce tonic convulsion and death in 50% of the animals). It counts as in vivo. Here is the method: Inverse agonist activity was evaluated in this Experiment. Pentylenetetrazole was subscutaneously administered male mice (a group of 8-16 male mice was employed in each test) at a dose of 90 mg/kg immediately after intravenous injection of the test compound. The dose (ED50) required to produce tonic convulsion and death in 50% of the animals during subsequent 2-hour observation period was calculated by the probit method.

Test [4] relates to human memory. The settings on record: M. Sarter et al., TINS 11, 13 (1988); cited from earlier work.

pKi: −log10 of the molar value.

The pKi is the negative decadic logarithm of the Ki, by convention in mol/L. High values mean a low Ki, low ones a high Ki. Usually ED50 stands for the midpoint of the dose-response relation. Regarding `c1ccc(-c2nc3cnc4c(c3[nH]2)CCCC4)cc1` [Ia-1, 2-Phenyl-6,7,8,9-tetrahydro-1H-imidazo[4,5-c]quinoline], in test [1], the pKi is 7.86. In addition, the ED50 in test [2] amounted to 7.85 mg/kg.

`c1csc(-c2nc3cnc4c(c3[nH]2)CCCC4)c1` [Ia-3] gave a pKi in test [1] of 8.72.

In test [1], `c1coc(-c2nc3cnc4c(c3[nH]2)CCCC4)c1` [Ia-5] showed a pKi of 8.46.

In test [1], `Cc1cc(-c2nc3cnc4c(c3[nH]2)CCCC4)on1` [Ia-6] gave a pKi of 8.66. The ED50 in test [2] was found to be 0.17 mg/kg.

In test [1], `c1cc(-c2nc3cnc4c(c3[nH]2)CCCC4)no1` [Ia-7, 2-(3-Isoxazolyl) -6,7,8,9-tetrahydro-1H-imidazo[4,5-c]quinoline] had a pKi of 8.89.

In test [1], `Cc1cc(-c2nc3cnc4c(c3[nH]2)COCC4)on1` [Ib-5] showed a pKi of 8.16. Besides, in test [2], the ED50 was determined as 0.8 mg/kg.

In turn, `c1cc(-c2nc3cnc4c(c3[nH]2)COCC4)no1` [Ib-7, 2-(3-Isoxazolyl)-1,6,7,9-tetrahydroimidazo[4,5-d]pyrano[4,3-b]pyridine] showed a pKi in test [1] of 8.68. Besides, in test [3], the ED50 was 1.27 mg/kg.

In test [1], `c1csc(-c2nc3cnc4c(c3[nH]2)CCCCC4)c1` [Ic-3] showed a pKi of 8.22.

In turn, `c1cc(-c2nc3cnc4c(c3[nH]2)CCCCC4)no1` [Ic-6] had a pKi in test [1] of 8.64.

In the case of `Cc1cc(-c2nc3cnc4c(c3[nH]2)CCCCC4)on1` [Ic-7], the pKi in test [1] is 8.02. Moreover, in test [2], the 50% effective dose (ED50) was found to be 1.05 mg/kg.

For the compound `c1cc(-c2nc3cnc4c(c3[nH]2)CCC4)no1` [Id-1], in test [1], the pKi is 8.59. Further, in test [3], the ED50 turned out to be 0.4 mg/kg.

`Cc1cc(-c2nc3cnc4c(c3[nH]2)CCC4)on1` [Id-2] gave a pKi in test [1] of 8.05. For the same compound, the ED50 in test [2] was 0.74 mg/kg.

With `CC1(C)Cc2ncc3nc(-c4ccon4)[nH]c3c2C1` [Ie-1, 2-(3-Isoxazolyl]-7,7-dimethyl-1H-imidazo[4,5-d]-cyclopenta[b]pyridine], the pKi in test [1] was 8.14. Further, in test [3], the ED50 came out at 0.25 mg/kg.

The compound `c1cc(-c2nc3cnc4c(c3[nH]2)CSCC4)no1` [If-1, 2-(3-Isoxazolyl)-1,6,7,9-tetrahydroimidazo[4,5-d]-thiopyrano[4,3-b]pyridine] showed a pKi in test [1] of 9.36. Further, in test [3], the ED50 was determined as 0.96 mg/kg.

In the case of `CCOC(=O)N1CCc2ncc3nc(-c4ccon4)[nH]c3c2C1` [Ig-1, 2-(3-isoxazolyl)-8-ethoxycarbonyl-6,7,8,9-tetrahydro-1H-imidazo[4,5-c]naphthylidine], the negative logarithm of the Ki (pKi) in test [1] is 8.55. Besides, the ED50 in test [2] worked out at 3.69 mg/kg.

Turning to `CN1C(=O)CN=C(c2ccccc2)c2cc(Cl)ccc21` [diazepam], the “effect on human memory” value in test [4] is on record as “inhibits human memory”.

Source of the values: patent US5378848A, “Condensed imidazopyridine derivatives” (Shionogi & Co., Ltd., priority 1992, dated 1995).
